Test results from PubChem BioAssay AID292 (DTP/NCI, 2004).
Several values for one entry are separate records, joined by “and”; a condition that tells them apart may be missing. Equal values may be shown once. Inconclusive results and toxic doses are left out.

System: B6C3F1 mice, ip Sarcoma M5076, median survival T/C
Assay: NCI In Vivo Anticancer Drug Screen. Data for tumor model Sarcoma M5076 (intraperitoneal) in B6C3F1 mice
Conditions: endpoint: median survival time, higher = longer survival
Outline: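 Tumour cells were transplanted into mice, compound or vehicle was given, survival of both groups was followed, and the treated figure was expressed over the control figure.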

[1] = dose: 50.0 mg/kg/injection, schedule: Q04DX004 (ip), vehicle: saline with Tween-80
[2] = dose: 100.0 mg/kg/injection, schedule: Q04DX004 (ip), vehicle: saline with Tween-80
[3] = dose: 200.0 mg/kg/injection, schedule: Q04DX004 (ip), vehicle: saline with Tween-80
[4] = dose: 400.0 mg/kg/injection, schedule: Q04DX004 (ip), vehicle: saline with Tween-80
[5] = dose: 50.0 mg/kg/injection, schedule: Q04DX004 (ip), vehicle: Klucel (hydroxypropylcellulose) (HPC)
[6] = dose: 100.0 mg/kg/injection, schedule: Q04DX004 (ip), vehicle: Klucel (hydroxypropylcellulose) (HPC)
[7] = dose: 200.0 mg/kg/injection, schedule: Q04DX004 (ip), vehicle: Klucel (hydroxypropylcellulose) (HPC)
[8] = dose: 400.0 mg/kg/injection, schedule: Q04DX004 (ip), vehicle: Klucel (hydroxypropylcellulose) (HPC)

Compound: OC(C1CO1)C(O)C1CO1 (stereo unspecified)
- T/C (dose: 1.0 mg/kg/injection, schedule: Q04DX005 (ip), vehicle: saline): 123 % of control
- T/C (dose: 2.0 mg/kg/injection, schedule: Q04DX005 (ip), vehicle: saline): 169 % of control
- T/C (dose: 4.0 mg/kg/injection, schedule: Q04DX005 (ip), vehicle: saline): 287 % of control
- T/C (dose: 8.0 mg/kg/injection, schedule: Q04DX005 (ip), vehicle: saline): 319 % of control

Compound: ClC1(Cl)Cc2ccccc21
- T/C [1]: 103 % of control
- T/C [2]: 114 % of control
- T/C [3]: 92 % of control
- T/C [4]: 87 % of control

Compound: COc1ccccc1C1C(C#N)C(=O)NC(=O)C1C#N (stereo unspecified)
- T/C [5]: 100 % of control
- T/C [6]: 100 % of control
- T/C [7]: 95 % of control
- T/C [8]: 102 % of control

Compound: COC(=O)C1(F)C(=O)NC(=O)NC1OC (stereo unspecified)
- T/C [5]: 100 % of control and 102 % of control
- T/C [6]: 106 % of control and 116 % of control
- T/C [7]: 104 % of control and 113 % of control
- T/C [8]: 109 % of control and 113 % of control
- T/C (dose: 800.0 mg/kg/injection, schedule: Q04DX004 (ip), vehicle: Klucel (hydroxypropylcellulose) (HPC)): 102 % of control and 116 % of control

Compound: CNC(=O)OCc1nc(SC)n(C)c1COC(=O)NC
- T/C (dose: 25.0 mg/kg/injection, schedule: Q04DX004 (ip), vehicle: saline): 122 % of control
- T/C (dose: 25.0 mg/kg/injection, schedule: Q04DX004 (ip), vehicle: suspension in saline): 119 % of control
- T/C (dose: 50.0 mg/kg/injection, schedule: Q04DX004 (ip), vehicle: saline): 119 % of control
- T/C (dose: 50.0 mg/kg/injection, schedule: Q04DX004 (ip), vehicle: suspension in saline): 122 % of control
- T/C (dose: 100.0 mg/kg/injection, schedule: Q04DX004 (ip), vehicle: saline): 151 % of control
- T/C (dose: 200.0 mg/kg/injection, schedule: Q04DX004 (ip), vehicle: saline): 184 % of control
- T/C (dose: 200.0 mg/kg/injection, schedule: Q04DX004 (ip), vehicle: suspension in saline): 193 % of control

Compound: Nc1cc2c(cc1Br)-c1c(C(=O)O)cccc1C2O (stereo unspecified)
- T/C [1]: 96 % of control
- T/C (dose: 50.0 mg/kg/injection, schedule: Q04DX004 (ip), vehicle: sodium bicarbonate): 94 % of control
- T/C [2]: 97 % of control
- T/C (dose: 100.0 mg/kg/injection, schedule: Q04DX004 (ip), vehicle: sodium bicarbonate): 100 % of control
- T/C [3]: 101 % of control
- T/C (dose: 200.0 mg/kg/injection, schedule: Q04DX004 (ip), vehicle: sodium bicarbonate): 109 % of control
- T/C [4]: 109 % of control
- T/C (dose: 400.0 mg/kg/injection, schedule: Q04DX004 (ip), vehicle: sodium bicarbonate): 107 % of control
- T/C (dose: 683.0 mg/kg/injection, schedule: Q04DX004 (ip), vehicle: saline with Tween-80): 103 % of control
- T/C (dose: 800.0 mg/kg/injection, schedule: Q04DX004 (ip), vehicle: sodium bicarbonate): 118 % of control

Compound: N=C1C=CC2C(=Nc3ccccc3[N+]2=O)N1CCO (stereo unspecified)
- T/C (dose: 25.0 mg/kg/injection, schedule: Q04DX004 (ip), vehicle: saline with Tween-80): 91 % of control
- T/C [1]: 103 % of control
- T/C [2]: 104 % of control
- T/C [3]: 100 % of control

Compound: c1ccc([Te][Te]c2ccccc2)cc1
- T/C (dose: 18.75 mg/kg/injection, schedule: Q04DX004 (ip), vehicle: saline with Tween-80): 106 % of control
- T/C (dose: 37.5 mg/kg/injection, schedule: Q04DX004 (ip), vehicle: saline with Tween-80): 100 % of control
- T/C (dose: 75.0 mg/kg/injection, schedule: Q04DX004 (ip), vehicle: saline with Tween-80): 98 % of control

Compound: Cc1ccc2c(c1)C1(SC(C)C(=O)N1c1ccc(Cl)cc1)C(=O)N2 (stereo unspecified)
- T/C [1]: 96 % of control
- T/C [2]: 101 % of control
- T/C [3]: 98 % of control
- T/C [4]: 93 % of control
- T/C (dose: 800.0 mg/kg/injection, schedule: Q04DX004 (ip), vehicle: saline with Tween-80): 86 % of control
